Results as given in publication PMC6482291, “Anticonvulsant Activity of Pterostilbene in Zebrafish and Mouse Acute Seizure Tests” (Neurochemical Research, 2019).

Legend:
[1] = tested on: mice; experiment: Forced swim test; type: in vivo; conditions: PTE 50 to 200 mg/kg ip, data not shown
Protocol: The forced swim test was carried out according to the method described by Porsolt et al. to assess antidepressant properties of PTE. Mice were placed individually in a glass cylinder (25 cm high; 10 cm diameter) containing tap water to a depth of 11 cm. Water was maintained at temperature of 23–25 °C. Mice were permitted to swim for 6 min and duration of their immobility was recorded during the last 4 min of the test by a trained experimenter who was blinded to the treatment. Immobility time was recorded using cumulative stopwatches. Mouse was considered to be immobile when it was floating in the water without struggling and making no attempts to escape, it was making only these movements necessary to keep its head above the water. After each trial, the water in the cylinder was replaced with fresh water. Experimental groups consisted of 10 animals.
Data obtained in the forced swim test were expressed as the mean (in s) + SEM immobility time in each experimental group. Results were analyzed by one-way ANOVA.

[2] = tested on: 6 Hz-induced psychomotor seizures in mice; experiment: 6 Hz psychomotor seizure threshold test; type: in vivo; conditions: 30 min before test, 95% confidence limits in brackets
Source text: (§1) Psychomotor (limbic) seizures were induced by transcorneal stimulation (6 Hz, 0.2 ms rectangular pulse, 3 s duration) generated by a Grass S48 stimulator coupled with a constant current unit CCU1 (both from Grass Technologies, West Warwick, RI, USA). Before stimulation a drop of ocular anesthetic, 1% tetracaine hydrochloride solution, was applied into the animals’ corneas. The electrodes were soaked in saline to ensure the good electrical contact. During the stimulation animals were restrained manually and immediately after the stimulation were placed in a Plexiglas box for observation of presence or absence of the psychomotor seizures. These seizures were characterized by immobilization or stun, often associated with rearing, forelimb clonus, twitching of vibrissae and elevated tail (Straub-tail), lasting at least 10 s from the stimulation. Lack of the above symptoms or their cessation within 10 s from the stimulation was considered as absence of seizure activity.
In the present study two 6 Hz-induced psychomotor seizure tests were performed: (1) the 6 Hz psychomotor seizure threshold test which employed stimulation at varied current intensities, and (2) the 6 Hz psychomotor seizure test with supramaximal stimulation at 32 mA and 44 mA.
In the 6 Hz psychomotor seizures threshold test, threshold current intensity (CS50 in mA) was estimated in groups of 20 animals according to the above mentioned up-and-down method.

[3] = tested on: GABA-induced chloride currents; design: method as in PMID 24462176; conditions: cited from earlier work
[4] = tested on: 6 Hz-induced psychomotor seizures in mice; experiment: 6 Hz psychomotor seizure test with supramaximal stimulation (32 and 44 mA); type: in vivo; conditions: Mus musculus, ip, 30 min before test
Source text: as §1
In the present study two 6 Hz-induced psychomotor seizure tests were performed: (1) the 6 Hz psychomotor seizure threshold test which employed stimulation at varied current intensities, and (2) the 6 Hz psychomotor seizure test with supramaximal stimulation at 32 mA and 44 mA. […]

[5] = tested on: mice; experiment: Chimney test; type: in vivo; conditions: for Impairment of motor coordination (percentage of animals): 30 min before test
Protocol: The chimney test was performed to evaluate influence of PTE on motor coordination in mice. During the test mice had to climb backwards up the plastic transparent cylinder (inner diameter 3 cm and length 30 cm) with gravelly inside. The inability of mice to escape from the cylinder within 60 s was considered as an motor impairment. Results obtained in the test were presented as percent of impaired mice in groups of 10–12 animals and were compared with the Fisher’s exact probability test.

[6] = tested on: PTZ-induced epileptiform discharges in zebrafish larvae; experiment: Electrographic discharge assessment (LFP recordings from optic tectum) in zebrafish larvae exposed to PTZ; type: in vivo, Danio rerio; conditions: 10 µM PTE, 2 h incubation, 20 mM PTZ, 20 min recording
Protocol: For local field potential (LFP) recordings, zebrafish larvae were incubated for 2 h, as described above. After incubation, larvae were exposed to vehicle or 20 mM PTZ for 5 min. Thereafter, larvae were immobilized in a thin layer of 2% low-melting-point agarose and the glass electrode (resistance […]) filled with artificial cerebrospinal fluid (124 mM NaCl, 2 mM KCl, 2 mM MgSO4, 2 Mm CaCl2, 1.25 mM KH2PO4, 26 mM NaHCO3, 10 mM glucose) was placed into the optic tectum (MultiClamp 700B amplifier, Digidata 1440A digitizer, Axon instruments, USA). Single recordings for each larva were performed for a period of 20 min. The discharges were analyzed according to the duration of spiking paroxysms and only those where the amplitude exceeded three times the background noise were taken into account. The data were analyzed with the aid of Clampfit 10.2 software (Molecular Devices Corporation, USA).

COc1cc(/C=C/c2ccc(O)cc2)cc(OC)c1 [PTE, trans-3,5-dimethoxy-4′-hydroxy-trans-stilbene]
immobility time vs control [1]: did not significantly reduce | CS50 (psychomotor seizure threshold) ([2]; PTE 100 mg/kg ip, p < 0.01): 15.56 (14.18–17.08) mA | CS50 (psychomotor seizure threshold) ([2]; PTE 200 mg/kg ip, p < 0.001): 19.28 (17.15–21.66) mA | effect on GABA-induced chloride currents [3]: enhances | ED50 ([4]; current intensity 32 mA): 506 ± 44.7 mg/kg | ED50 ([4]; current intensity 44 mA): 541 ± 41.5 mg/kg | Impairment of motor coordination (percentage of animals) ([5]; PTE 50 mg/kg ip): 0% | Impairment of motor coordination (percentage of animals) ([5]; PTE 100 mg/kg ip): 0% | Impairment of motor coordination (percentage of animals) ([5]; PTE 400 mg/kg ip): 0% | Impairment of motor coordination (percentage of animals) ([5]; PTE 600 mg/kg ip): 0% | influence on motor coordination ([5]; PTE 50–800 mg/kg ip): did not significantly influence | mean duration of ictal-like discharges [6]: statistically significant reduction | number of epileptiform discharges in the zebrafish brain ([6]; vs vehicle): significantly reduced | total duration of epileptiform discharges in the zebrafish brain ([6]; vs vehicle): significantly reduced
